From paper PMC5796017, “Enantiomeric Effect of D-Amino Acid Substitution on the Mechanism of Action of α-Helical Membrane-Active Peptides” (International Journal of Molecular Sciences, 2017)
Converted amounts (≈) assume the structure as drawn.

Legend:
[1] = system: P. aeruginosa ATCC27853; experiment: Antimicrobial activity, microtiter dilution MIC; assay type: cell-based, Pseudomonas aeruginosa; details: G−; MH medium, 5 × 10^5 CFU/mL, 37 °C, 24 h, triplicate
Procedure: (§1) The antimicrobial activity of the peptides was determined by the standard microtiter dilution method and indicated as MIC (minimal inhibitory concentration) as described previously. Briefly, bacteria were cultured in Mueller–Hinton (MH) medium overnight at 37 °C, diluted to a final inoculum of 5 × 10^5 colony-forming units (CFU)/mL with MH and loaded into 96-well microtiter plates (90 μL/well) with serial dilution of peptides (10 μL/well), with a further incubation at 37 °C for 24 h. MIC was expressed as the lowest peptide concentration that inhibited the growth of bacteria. The antimicrobial assays were repeated in triplicate.

[2] = system: E. coli ATCC25922; experiment: Outer membrane permeability assay (NPN uptake); assay type: cell-based, Escherichia coli; details: 16 μM peptide, 10 min, excitation 350 nm, emission 420 nm
Description: To explore the potential role of the helicity of the peptides in damaging cell membranes, we investigated the disruption of the outer membrane of Escherichia coli (E. coli) by quantifying the fluorescence intensity of 1-N-phenylnaphthylamine (NPN), which is a hydrophobic fluorescent probe. The intensity of NPN is weak in a hydrophilic environment. The fluorescence intensity of NPN gradually increases as it is exposed to a more hydrophobic environment due to damage to the bacterial outer membrane by MAPs.
The outer membrane permeability of the peptides against E. coli ATCC25922 was evaluated using the hydrophobic fluorescent probe NPN, as performed previously. In brief, E. coli was cultured in LB medium at 37 °C until the absorbance of the bacterial suspension at 600 nm was 0.4–0.6, the bacterial pellet was collected by centrifugation and resuspended in a reaction buffer (pH 7.4, 5 mM HEPES, 5 mM NaN3, 0.25 mM NPN) until the absorbance at 600 nm was 0.5. Then, an aliquot of the peptide sample and the bacterial suspension were co-incubated to give a final peptide concentration of 16 μM. The same volume of reaction buffer was used as the negative control. A Shimadzu RF-5301 PC fluorescent spectrometer (excitation wavelength of 350 nm, emission wavelength of 420 nm) was used to collect data continuously for 10 min.

[3] = system: S. aureus ATCC25923; experiment: Antimicrobial activity, microtiter dilution MIC; assay type: cell-based, Staphylococcus aureus; details: G+; MH medium, 5 × 10^5 CFU/mL, 37 °C, 24 h, triplicate
Procedure: as §1

[4] = system: human red blood (hRBC) cells; experiment: Hemolytic activity assay; assay type: cell-based; details: 2% human RBC in PBS, 37 °C, 2 h, absorbance 578 nm, triplicate
Procedure: The […] of the peptides was measured by a hemolytic activity assay as described previously. Briefly, healthy human RBCs were collected using an anticoagulation tube with EDTAK2 and centrifuged at 1000 rpm for 5 min. The erythrocytes were washed three times, then diluted to a concentration of 2% in phosphate-buffered saline (PBS). The peptides were serially diluted in PBS and 70 μL of the peptide solutions and 2% RBC suspension were added simultaneously to each well of a 96-well plate (round bottom) for a further incubation at 37 °C for 2 h. Then, the plates were centrifuged for 10 min at 3000 rpm and the supernatant (90 μL) was transferred to a 96-well plate (flat bottom). The absorbance of the supernatant was measured on a microplate reader at 578 nm. Erythrocytes in PBS and distilled water were used as the negative (0%) and positive (100%) controls, respectively. The hemolytic activity was calculated as the percentage of experimental group over positive control (100%), after subtraction of negative control (0%). The hemolytic assays were repeated in triplicate.

[5] = RP-HPLC retention time as relative hydrophobicity; assay type: physicochemical; details: 25 °C, used by the paper as measure of relative hydrophobicity
Procedure: The RP-HPLC retention time has been widely used to represent the relative hydrophobicity of peptides in many studies.The relative hydrophobicity of the peptides was determined by the RP-HPLC retention times at 25 °C. The change in hydrophobicity of the peptides caused by D-amino acid substitutions was mainly due to the disruption of the helical structure.

[6] = system: E. coli ATCC25922; experiment: Antimicrobial activity, microtiter dilution MIC; assay type: cell-based, Escherichia coli; details: G−; MH medium, 5 × 10^5 CFU/mL, 37 °C, 24 h, triplicate
Procedure: as §1

[7] = system: S. epidermidis ATCC12228; experiment: Antimicrobial activity, microtiter dilution MIC; assay type: cell-based, Staphylococcus epidermidis; details: G+; MH medium, 5 × 10^5 CFU/mL, 37 °C, 24 h, triplicate
Procedure: as §1

[8] = Circular dichroism (CD) secondary structure; assay type: physicochemical
Description: The influence of the amino acid substitutions on the peptide secondary structure were investigated using circular dichroism (CD) spectroscopy under benign conditions (KP buffer) and under conditions designed to mimic the hydrophobic environment of the membrane (KP buffer with 50% TFE). D-amino acid substitutions reduced the helicity of the peptide analogs relative to that of peptide V13K, in both KP buffer and KP buffer with 50% TFE. […] As shown in Table 2 and Figure S1, the values of the relative helicity of peptides with polar face substitutions are in the order of K14D (76.99%) > S11D/K14D (51.33%) > S11D/K14D/T15D (38.67%). Similarly, the relative helicity of the peptides with substitutions on the non-polar face follows the same trend: A12D (70.83%) > F9D/A12D (38.26%) > F9D/A12D/V16D (36.41%). Since the values of the relative helicity of the peptides with D-amino acid substitutions on the non-polar face were less than those peptide analogs with the same number of D-amino acid substitutions on the polar face, it is clear that the amino acid residues on the non-polar face may be more important for stabilizing the α-helical structure than residues on the polar face.
The secondary structures of the peptides were examined using a Jasco J-810 CD spectrometer (Jasco, Easton, MD, USA) at 25 °C as described previously. […] The mean residue molar ellipticities were calculated according to the equation [θ] = θ/10lCMn, in which, θ represents the ellipticity in millidegrees, l is the optical path length of the cuvette in centimeters, CM is the peptide concentration in mol/L, and n is the number of residues in the peptide. The mean residue molar ellipticities at 222 nm, [θ]222 (degree·cm^2·dmol^−1), were used to calculate the relative helical content of the peptides.

[9] = system: HPAC; experiment: MTT cell viability assay; assay type: cell-based, human; details: 24 h, mean ± SEM of three independent determinations
Procedure: (§2) HeLa, MIA PaCa-2, HPAC, and Bxpc-3 cells were maintained in Dulbecco’s modified Eagle medium) with 10% fetal bovine serum, penicillin (100 U/mL), and streptomycin ([…]) in a humid atmosphere at 37 °C with 5% CO2. The effect of the peptides on the survival of HeLa, MIA PaCa-2, HPAC, and Bxpc-3 cells was determined by 3-(4,5-dimethyl-2-thiazolyl)-2,5-diphenyl-2H-tetrazolium bromide (MTT) assay, as described in a previous study. Briefly, cells were seeded in 96-well plates at a density of 5000 per well. After overnight incubation, cells were incubated, in the absence, or presence of various concentrations of peptides for 24 h. Then, the formazan crystals formed by MTT were dissolved with dimethyl sulfoxide (DMSO) and the absorbance was determined at 492 nm with a microplate reader (GF-M3000; Gaomi Caihong Analytical Instruments Co., Shandong, China). The results were expressed as IC50 values, representing the concentration at which cell viability was reduced by 50%. The cytotoxicity assays were repeated in triplicate.

[10] = system: MIA PaCa-2; experiment: MTT cell viability assay; assay type: cell-based, human; details: MIA PaCa-2, MTT, 24 h; mean ± SEM of three independent determinations
Procedure: as §2

[11] = system: BxPC-3; experiment: MTT cell viability assay; assay type: cell-based, human; details: BxPC-3, MTT, 24 h; mean ± SEM of three independent determinations
Procedure: as §2

[12] = system: HeLa; experiment: MTT cell viability assay; assay type: cell-based, human; details: 24 h, mean ± SEM of three independent determinations
Procedure: as §2

SMILES: CC[C@H](C)[C@H](NC(=O)[C@H](C)NC(=O)[C@H](CCCCN)NC(=O)[C@H](CC(C)C)NC(=O)[C@H](C)NC(=O)[C@@H](NC(=O)[C@H](Cc1c[nH]cn1)NC(=O)[C@H](CC(C)C)NC(=O)[C@@H](NC(=O)[C@@H](NC(=O)[C@@H](CCCCN)NC(=O)[C@H](CCCCN)NC(=O)[C@H](C)NC(=O)[C@H](CO)NC(=O)[C@H](CCCCN)NC(=O)[C@H](Cc1ccccc1)NC(=O)[C@@H](NC(=O)[C@H](CCCCN)NC(=O)[C@H](CC(C)C)NC(=O)[C@H](Cc1ccccc1)NC(=O)[C@H](CO)NC(=O)[C@H](CCCCN)NC(=O)[C@H](Cc1c[nH]c2ccccc12)NC(=O)[C@H](CCCCN)NC(C)=O)[C@@H](C)O)[C@@H](C)O)C(C)C)[C@@H](C)O)C(=O)N[C@@H](CO)C(=O)N[C@@H](CO)C(N)=O [Peptide K14D]
- MIC [1]: 16 µM (≈ 47.9 µg/mL)
- Outer membrane permeabilization, NPN fluorescence intensity [2]: enhanced
- MIC [3]: 32 µM (≈ 95.7 µg/mL)
- MHC (minimal hemolytic concentration) [4]: 125 µM
- tR (RP-HPLC retention time), relative hydrophobicity [5]: 41.93 min
- MIC [6]: 32 µM (≈ 95.7 µg/mL)
- MIC [7]: 16 µM (≈ 47.9 µg/mL)
- [θ]222, benign ([8]; CD, KP buffer (100 mM KCl, 50 mM KH2PO4/K2HPO4, pH 7.4), 75 μM peptide, 25 °C): −2223.13 degree·cm^2·dmol^−1
- [θ]222, 50% TFE ([8]; CD, KP buffer with 50% TFE, 75 μM peptide, 25 °C): −38,897.2 degree·cm^2·dmol^−1
- α-Helix (%), 50% TFE (relative helicity) ([8]; KP buffer with 50% TFE, relative to molar ellipticity of V13K in 50% TFE): 76.99%
- α-Helix (%), benign ([8]; KP buffer, relative to molar ellipticity of V13K in 50% TFE): 4.4%
- IC50 [9]: 7.2 ± 5.2 µM
- IC50 [10]: 17.9 ± 2.3 µM
- IC50 [11]: 20 ± 0.8 µM
- IC50 [12]: 15.6 ± 4.1 µM
